Measured values from paper PMC9499324, “Glycyrrhizic Acid Derivatives Bearing Amino Acid Residues in the Carbohydrate Part as Dengue Virus E Protein Inhibitors: Synthesis and Antiviral Activity” (International Journal of Molecular Sciences, 2022).
Where two headings read alike, the source gives them in different places.

Legend:
DENV2 [1] = assay: DENV2-induced cytopathic effect (CPE) reduction screening in Vero E6 cells; type: cell-based, Dengue virus type 2; conditions: Dengue virus, Vero C1008; 10 μM compound, DENV2, Vero E6 cells, 96 h; read-out: CPE Reduction at 10 μM
Experimental: (§1) In the antiviral screening assay, each tested GL conjugate at 10 μM was used to survey the anti-DENV activity in Vero E6 cells using cytopathic effect (CPE) and infectivity reduction assays as described in our prior report. In CPE and infectivity reduction assays, Vero E6 cells were infected by DENV2 at an MOI of 0.005 and simultaneously treated 10 μM of indicated GL conjugate for 96 h, and then photographed by microscope for examining the levels of DENV2-induced CPE in infected cells treated with or without GL conjugate. Meanwhile, the cells were further performed using immunofluorescence assay (IFA) with anti-DENV NS4B antibodies (GeneTex, Inc., Hsinchu, Taiwan) and anti-rabbit IgG antibodies conjugated with AF555 (ThermoFisher, Waltham, MA, USA) plus DAPI (4′,6-diamidino-2-phenylindole) nuclear staining. Finally, the DENV-2 infectivity was measured according to the ratio of DENV NS4B-positive cells to DAPI-stained cells in the well of mock-treated or treated cells, as described in [45, 59, 60].

[2] = MTT cytotoxicity assay in Vero E6 cells; type: cell-based; conditions: African green monkey
Experimental: Vero E6 cells and A549 cells (5 × 10^3 cells/well) were treated with the serial dilution of GL conjugates at 0, 0.1, 10, 20, and 50 μM for examining the in vitro cytotoxicity of tested compounds. After 96-h incubation at 37 °C, the cells were incubated with MTT (3-(4,5-Dimethylthiazol-2-yl)-2,5-Diphenyltetrazolium Bromide) solution for another 4 h incubation, mixed with DMSO for 15 min after the removal of media, and then measured the absorbance at 570 nm. The viability (%) of treated cells was quantified according to the reduced ability of MTT. Finally, the concentration for reducing 50% cell viability (the 50% cytotoxic concentration, CC50) was determined by regression analysis of the concentration–response survival curve.

DENV2 [3] = assay: DENV2 infectivity inhibition (anti-NS4B immunofluorescence) in A549 cells; type: cell-based, Dengue virus type 2; conditions: Dengue virus
DENV2 [4] = assay: DENV2 yield reduction assay (TCID50) in Vero E6 cells; type: cell-based, Dengue virus type 2
Experimental: Ten-fold serial dilutions of the cultured media of treated/infected cells harvested in the antiviral potency assay were applied to a monolayer of Vero E6 cells in the 96-well plates. After 96-h incubation, the number of CPE in each well of the dilution was calculated, and the indicated dilution with a 50% positivity rate of CPE in the cell culture was expressed as the […] (50%) tissue culture infectious dose (TCID50).

DENV2 [5] = assay: Time-of-addition/compound removal assay with DENV2 in Vero E6 cells; type: cell-based, Dengue virus type 2; conditions: for IC50: Dengue virus, Vero C1008, attachment mode, 4 °C, DENV2, Vero E6 cells; for Stage of DENV2 replication affected (attachment, entry, post-entry modes): time-of-addition/removal, Vero E6 cells
Experimental: Figure 5 Time-of-addition and removal assay for analyzing antiviral action of compounds 3 (A), 6 (B), 11 (C), and 21 (D) in Vero E6 cells. In the attachment mode, cells were pre-cooled and incubated with fresh-prepared mixtures of active compounds with DENV2 at 4 °C for 1 h. After the removal of the mixtures, the cells were kept at 37 °C for 96 h (a cycle of viral replication) and then were performed by immunofluorescent assay plus DAPI staining. In entry and post-entry modes, cells were infected with DENV2 and treated with the compounds simultaneously (the entry stage) or 1-h post-infection (post-entry stage). After a 1 h incubation period, the virus/compound mixture was removed; the cell monolayer was washed with PBS and cultured for 96 h and then subjected to immunofluorescence staining and DAPI. Finally, the inhibition percentage of DENV2 infectivity was calculated as follows: 1-(percentage of NS4B positivity in treated cells/percentage of NS4B positivity in mock-treated cells). *** p < 0.001 compared with the other two antiviral action modes.
The time-of-addition assays consisted of three modes including attachment treatment/removal, entry-treatment/removal, and post-entry treatment/removal modes. In the attachment-treatment/removal mode, Vero E6 cells monolayer in 6-well plate was placed at 4 °C for 2 h and incubated with the fresh-prepared mixture of DENV-2 (MOI = 0.005) with the active compound at indicated concentrations for 2 h at 4 °C, and then washed with phosphate-buffered saline (PBS). In the entry-treatment/removal mode, Vero E6 cells were simultaneously treated with the active compound and infected DENV-2 (MOI = 0.005) in 6-well plates, incubated for 1 h at 37 °C, and then washed with PBS. In the post-entry treatment/removal mode, the cells were infected with DENV-2 for 1 h at 37 °C, treated with the active compounds at indicated concentrations for 1 h at 37 °C, respectively, and then washed by PBS. After active compound removal (washout), the cells were incubated at 37 °C for 96 h, and then were analyzed by immunofluorescent and DAPI staining assay for determining the residual DENV-2 infectivity, as described above. The inhibitory activity of the transient treatment by active compounds on attachment, entry, and post-entry stages of DENV replication in vitro was determined based on the residual infectivity.

DENV1 and DENV2 = assay: DENV infectivity inhibition, summary over DENV1 and DENV2 in Vero E6 and A549 cells; type: cell-based, Dengue virus; conditions: read-out: IC50 in DENV infectivity (range over assays)
Description: as §1, with “In the antiviral screening assay, each tested GL conjugate at 10 μM was used to survey the anti-DENV activity in Vero E6 cells using cytopathic effect (CPE) and infectivity reduction assays as described in our prior report.” left out, “[…],” for “Vero E6 cells were infected by DENV2 at an MOI of 0.005 and simultaneously treated 10 μM of indicated GL conjugate for 96 h,”

[6] = Dengue virus, DENV2, Vero C1008, 96 h, read-out: IC50 on the viral yield of DENV2, Vero E6 cells, TCID50 assay, 96 h
[7] = Dengue virus, range over DENV1 and DENV2, Vero E6 and A549 cells

Structure (SMILES)	inhibition at 10 µM (DENV2 [1]) [%]	CC50 at 96 h [2] [µM]	IC50 (DENV2 [3]) [nM]	IC50 (DENV2 [4]; [6]) [nM]	IC50 (DENV2 [5]) [nM]	Stage of DENV2 replication affected (attachment, entry, post-entry modes) (DENV2 [5])	IC50 (DENV1 and DENV2; [7]) [nM]	IC50 (DENV1 and DENV2) [nM]	IC50 (DENV2 [4]; read-out: IC50 on the viral yield of DENV2, Vero E6 cells, TCID50 assay, 96 h) [nM]
COC(=O)[C@H](NC(=O)[C@H]1O[C@@H](O[C@H]2[C@H](OC3CC[C@@]4(C)C(CC[C@]5(C)C4C(=O)C=C4C6C[C@@](C)(C(=O)O)CC[C@]6(C)CC[C@]45C)C3(C)C)O[C@H](C(=O)N[C@@H](C(=O)OC)C(C)C)[C@@H](O)[C@@H]2O)[C@H](O)[C@@H](O)[C@@H]1O)C(C)C (stereo partly drawn) [Compound 3, 3-O-{2-O-[N-(β-D-Glucopyranosyluronoyl)-D-valinemethyl ester]-N-(β-D-glucopyranosyluronoyl)-D-valinemethyl ester}-(3β, 20β)-11-oxo-30-noroleane-12-ene-30-oic Acid]	75 to 100	> 100	120 ± 28	500	1860	mostly affected the virus binding stage to the cell surface in the attachment mode	100 to 5980	120 to 2810	–
CCOC(=O)[C@H](Cc1ccccc1)NC(=O)[C@H]1O[C@@H](O[C@H]2[C@H](OC3CC[C@@]4(C)C(CC[C@]5(C)C4C(=O)C=C4C6C[C@@](C)(C(=O)O)CC[C@]6(C)CC[C@]45C)C3(C)C)O[C@H](C(=O)N[C@@H](Cc3ccccc3)C(=O)OCC)[C@@H](O)[C@@H]2O)[C@H](O)[C@@H](O)[C@@H]1O (stereo partly drawn) [Compound 11, 3-O-{2-O-[N-(β-D-Glucopyranosyluronoyl)-L-phenylalanineethyl ester]-N-(β-D-Glucopyranosyluronoyl)-L-phenylalanineethyl ester}-(3β, 20β)-11-oxo-30-noroleane-12-ene-30-oic Acid]	75 to 100	> 100	1560 ± 490	200	180	mostly affected the virus binding stage to the cell surface in the attachment mode	100 to 5980	180 to 1560	170
